# Laboratory results published in ChEMBL document CHEMBL1201862, “PubChem BioAssay data set” (2004).
#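 Cultured in 96-well plates, cells were exposed to test compound for 48 hours across five concentrations. At the GI50, growth is halved.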 Calls of active or inactive are those of the source. Cut-off read from the data, not from the text of the source: active = GI50 up to about 1.1 µM and inactive = higher. Non-standard residues stand in square brackets, D forms with d. Residues, ends and D or L forms follow the SMILES beside them. ξ: configuration not given here. Pentanoyl(2-O,4-OH,5-Cl) = O=C(O)C(O)CC(O)CCl; Ile(3ξ) = CCC(C)[C@H](N)C(=O)O; NMeV = CN[C@H](C(=O)O)C(C)C; NMeA = CN[C@@H](C)C(=O)O; βAla = NCCC(=O)O
# Columns and labels:
# Assay in all cases: DTP human tumour cell line panel, 48 h
# SR = tested on: SR
# MDA-MB-231 = tested on: MDA-MB-231
# PC-3 = tested on: PC-3
# M14 = tested on: M14
# NCI/ADR-RES = tested on: NCI/ADR-RES
# ACHN = tested on: ACHN
# MCF7 = tested on: MCF7
# DU-145 = tested on: DU-145
# HCC 2998 = tested on: HCC 2998
# CAKI-1 = tested on: CAKI-1
# TK-10 = tested on: TK-10
# MDA-N = tested on: MDA-N
# EKVX = tested on: EKVX
# T47D = tested on: T47D
# SF-539 = tested on: SF-539
# MDA-MB-435 = tested on: MDA-MB-435
# M19-MEL = tested on: M19-MEL
# SNB-78 = tested on: SNB-78
# DMS-273 = tested on: DMS-273
# HOP-18 = tested on: HOP-18
Compound,GI50 (SR),GI50 (MDA-MB-231),GI50 (PC-3),GI50 (M14),GI50 (NCI/ADR-RES),GI50 (ACHN),GI50 (MCF7),GI50 (DU-145),GI50 (HCC 2998),GI50 (CAKI-1),GI50 (TK-10),GI50 (MDA-N),GI50 (EKVX),GI50 (T47D),GI50 (SF-539),GI50 (MDA-MB-435),GI50 (M19-MEL),GI50 (SNB-78),GI50 (DMS-273),GI50 (HOP-18)
Nc1ccc(N(S(=O)(=O)c2ccccc2)S(=O)(=O)c2ccccc2)c(Cl)c1,57.3 µM (inactive),98.2 µM (inactive),35.6 µM (inactive),77.6 µM (inactive),40.2 µM (inactive),66.5 µM (inactive),39.3 µM (inactive),95.7 µM (inactive),18.5 µM (inactive),47.3 µM (inactive),55.1 µM (inactive),28.9 µM (inactive),64.3 µM (inactive),48.1 µM (inactive),69 µM (inactive),15.1 µM (inactive),–,–,–,–
O=C1CCCCC2N(C(c3ccccc3)c3ccccc3)CC[C@@]12c1ccccc1.O=C1CCCC[C@H]2N(C(c3ccccc3)c3ccccc3)CC[C@@]12c1ccccc1 (some centres not stated),–,–,–,> 10 µM (inactive),–,8.87 µM (inactive),–,–,–,4.83 µM (inactive),> 10 µM (inactive),–,7.73 µM (inactive),–,> 10 µM (inactive),–,> 10 µM (inactive),> 10 µM (inactive),> 10 µM (inactive),–
CN(C)CCCNC(=O)N/N=C/c1ccccc1,–,–,–,–,–,> 100 µM (inactive),–,–,–,–,> 100 µM (inactive),–,–,–,> 100 µM (inactive),–,> 100 µM (inactive),> 100 µM (inactive),> 100 µM (inactive),> 100 µM (inactive)
Cc1ccc(S(=O)(=O)N(C=O)N=C2CCN(Cc3ccccc3)CC2)cc1,> 100 µM (inactive),–,–,> 100 µM (inactive),–,> 100 µM (inactive),–,–,> 100 µM (inactive),> 100 µM (inactive),> 100 µM (inactive),–,> 100 µM (inactive),–,> 100 µM (inactive),–,> 100 µM (inactive),> 100 µM (inactive),> 100 µM (inactive),> 100 µM (inactive)
CSCCC(NC(=O)OCc1ccccc1)P(=O)(O)c1ccccc1 (configuration not stated),> 100 µM (inactive),> 100 µM (inactive),> 100 µM (inactive),> 100 µM (inactive),> 100 µM (inactive),> 100 µM (inactive),> 100 µM (inactive),> 100 µM (inactive),> 100 µM (inactive),> 100 µM (inactive),> 100 µM (inactive),> 100 µM (inactive),–,> 100 µM (inactive),–,> 100 µM (inactive),–,–,–,–
CCOP(=O)(CN=C(c1ccccc1)c1ccccc1)OCC,> 100 µM (inactive),> 100 µM (inactive),> 100 µM (inactive),> 100 µM (inactive),> 100 µM (inactive),> 100 µM (inactive),> 100 µM (inactive),> 100 µM (inactive),> 100 µM (inactive),> 100 µM (inactive),> 100 µM (inactive),> 100 µM (inactive),–,86.7 µM (inactive),–,> 100 µM (inactive),–,–,–,–
Oc1c(Br)ccc2cccnc12,0.944 µM (active),1.87 µM (inactive),3.33 µM (inactive),–,1 µM (active),3.13 µM (inactive),0.443 µM (active),5.4 µM (inactive),15.1 µM (inactive),5.94 µM (inactive),5.04 µM (inactive),> 19.8 µM (inactive),3.27 µM (inactive),1.51 µM (inactive),–,7.5 µM (inactive),–,–,–,–
C=CCC12CC(=O)C=C1CCC1(C2)OCCO1 (configuration not stated),> 100 µM (inactive),–,–,> 100 µM (inactive),–,> 100 µM (inactive),–,–,> 100 µM (inactive),> 100 µM (inactive),> 100 µM (inactive),–,–,–,> 100 µM (inactive),–,> 100 µM (inactive),> 100 µM (inactive),> 100 µM (inactive),> 100 µM (inactive)
N#Cc1c(NC(=S)NC(=O)c2ccccc2)nc2c(c1-c1ccccc1)CCCC2,> 100 µM (inactive),93.8 µM (inactive),> 100 µM (inactive),> 100 µM (inactive),51.6 µM (inactive),–,58.9 µM (inactive),> 100 µM (inactive),–,> 100 µM (inactive),> 100 µM (inactive),> 100 µM (inactive),–,17.7 µM (inactive),–,> 100 µM (inactive),–,–,–,–
COc1ccc(C2c3cc4c(cc3OC(NCCO)C2C)OCO4)cc1 (configuration not stated),19 µM (inactive),26.9 µM (inactive),23.4 µM (inactive),26.4 µM (inactive),–,29.6 µM (inactive),27.3 µM (inactive),29.4 µM (inactive),26.5 µM (inactive),23.5 µM (inactive),23.8 µM (inactive),18.2 µM (inactive),32 µM (inactive),30.3 µM (inactive),20 µM (inactive),23.6 µM (inactive),–,–,–,–
CC(C)CC(N)C(=O)NC(CNC(CCC(N)=O)C(=O)NC(CC(C)C)C(=O)NC(CC(C)C)C(=O)O)Cc1ccc2ccccc2c1 (configuration not stated),> 10 µM (inactive),> 10 µM (inactive),> 10 µM (inactive),> 10 µM (inactive),> 10 µM (inactive),> 10 µM (inactive),> 10 µM (inactive),> 10 µM (inactive),> 10 µM (inactive),9.31 µM (inactive),> 10 µM (inactive),> 10 µM (inactive),> 10 µM (inactive),–,> 10 µM (inactive),> 10 µM (inactive),–,–,–,–
Cc1c(Cl)c(=O)oc2cc(OCC(=O)c3ccccc3)ccc12,2.7 µM (inactive),29.4 µM (inactive),> 100 µM (inactive),> 100 µM (inactive),> 100 µM (inactive),> 100 µM (inactive),> 100 µM (inactive),> 100 µM (inactive),> 100 µM (inactive),> 100 µM (inactive),92 µM (inactive),> 100 µM (inactive),> 100 µM (inactive),> 100 µM (inactive),> 100 µM (inactive),> 100 µM (inactive),–,–,–,–
O=C1C=C(Sc2ccccc2)c2nccc3c2c1nc1ccccc13,5.92 µM (inactive),20 µM (inactive),13.3 µM (inactive),13.3 µM (inactive),21.8 µM (inactive),19.3 µM (inactive),14.9 µM (inactive),40.9 µM (inactive),17.5 µM (inactive),44.2 µM (inactive),31.1 µM (inactive),16.9 µM (inactive),20.7 µM (inactive),–,17.1 µM (inactive),16.9 µM (inactive),–,–,–,–
N#CCCC(CCC#N)(CCC#N)NO,> 100 µM (inactive),> 100 µM (inactive),> 100 µM (inactive),> 100 µM (inactive),> 100 µM (inactive),> 100 µM (inactive),> 100 µM (inactive),> 100 µM (inactive),–,> 100 µM (inactive),> 100 µM (inactive),> 100 µM (inactive),> 100 µM (inactive),> 100 µM (inactive),> 100 µM (inactive),> 100 µM (inactive),–,–,–,–
COc1ccc2[nH]c3c(C)c4ccncc4c(C)c3c2c1,–,–,–,–,0.139 µM (active),–,0.359 µM (active),–,1.92 µM (inactive),0.601 µM (active),–,–,1.01 µM (active),–,0.409 µM (active),–,–,2.69 µM (inactive),0.218 µM (active),1.29 µM (inactive)
O=[N+]([O-])c1cccc2nccc(NCC(O)CO)c12 (configuration not stated),5.06 µM (inactive),11.5 µM (inactive),16.5 µM (inactive),17.4 µM (inactive),25.5 µM (inactive),20.6 µM (inactive),13.9 µM (inactive),26.3 µM (inactive),13.1 µM (inactive),16 µM (inactive),18 µM (inactive),17.1 µM (inactive),14.5 µM (inactive),24.2 µM (inactive),17.7 µM (inactive),16.6 µM (inactive),–,–,–,–
CC(C(=O)NCCNC(=O)CCCC(=O)N(C)O)C(=O)NCCNC(=O)CCCC(=O)N(C)O,> 100 µM (inactive),> 100 µM (inactive),> 100 µM (inactive),> 100 µM (inactive),> 100 µM (inactive),> 100 µM (inactive),> 100 µM (inactive),> 100 µM (inactive),> 100 µM (inactive),> 100 µM (inactive),> 100 µM (inactive),> 100 µM (inactive),> 100 µM (inactive),> 100 µM (inactive),–,> 100 µM (inactive),–,–,–,–
O=C/C(=C1/C=Cc2cc([N+](=O)[O-])ccc2S1)c1ccccc1,> 100 µM (inactive),> 100 µM (inactive),> 100 µM (inactive),> 100 µM (inactive),> 100 µM (inactive),> 100 µM (inactive),> 100 µM (inactive),> 100 µM (inactive),> 100 µM (inactive),> 100 µM (inactive),> 100 µM (inactive),> 100 µM (inactive),> 100 µM (inactive),> 100 µM (inactive),> 100 µM (inactive),> 100 µM (inactive),–,–,–,–
"CCC(C)[C@@H]1NC(=O)[C@@H]2CCCN2C(=O)C(CC(O)CCl)OC(=O)CCNC(=O)[C@H](C)N(C)C(=O)[C@H](C(C)C)N(C)C1=O (some centres not stated) (cyclo([Ile(3ξ)][NMeV][NMeA][βAla][Pentanoyl(2-O,4-OH,5-Cl)]P))",0.361 µM (active),> 47.5 µM (inactive),74.6 µM (inactive),0.46 µM (active),> 100 µM (inactive),> 100 µM (inactive),> 39.8 µM (inactive),> 100 µM (inactive),–,> 100 µM (inactive),> 100 µM (inactive),> 100 µM (inactive),> 100 µM (inactive),3.94 µM (inactive),> 100 µM (inactive),> 100 µM (inactive),–,–,–,–
Nc1ccccc1Sc1ccc(Cl)cc1,21.2 µM (inactive),–,–,31.8 µM (inactive),–,27 µM (inactive),–,–,28.1 µM (inactive),–,35.6 µM (inactive),–,30.1 µM (inactive),–,35.4 µM (inactive),–,23 µM (inactive),17 µM (inactive),26.1 µM (inactive),43.2 µM (inactive)
